Measured values published in PMC6141739, “TFPI-2 Protects Against Gram-Negative Bacterial Infection” (Frontiers in Immunology, 2018).

Key:
Escherichia coli [1] = test: Viable count assay (VCA); type: cell-based, Escherichia coli ATCC 25922
Experimental: Escherichia coli bacteria were grown to mid-logarithmic phase in 10 ml of (3% w/v) Todd-Hewitt (TH), bacteria were washed and diluted in buffer 10 mM Tris, pH 7.4, containing 150 mM NaCl, either alone or with the presence of human 20% citrate plasma, lepirudin, heparin, EDTA plasma, or serum. 1–2 × 10^6 cfu/ml bacteria were incubated in a total volume of 50 μl with the indicated concentrations of C-terminal TFPI-2 derived peptides for 2 h at 37°C. Alternatively, 1–2 × 10^6 cfu/ml of E. coli bacteria in the presence or absence of EDC34 were incubated either in PBS alone or PBS supplemented with 25% of human citrated plasma, immunoglobulins depleted citrated plasma, or immunoglobulins depleted citrated plasma supplemented with 10 μg of IgG/μl, for 2 h at 37°C. Serial of dilutions of the reaction mixture were plated on TH agar plates, followed by the incubation at 37°C overnight. The number of colony forming units was determined as a percentage to control sample.

P. aeruginosa = test: Viable count assay (VCA); type: cell-based, Pseudomonas aeruginosa; settings: 20% human citrate plasma, 2 h 37°C (Figure 3A,B); text does not separate the two bacteria
Escherichia coli [2] = test: Radial diffusion assay (RDA); type: cell-based; settings: 100 μM peptide, high salt (150 mM NaCl), n = 3 (Figure 3C,D)
Experimental: Escherichia coli was grown to mid-logarithmic phase in 10 ml (3% w/v) of trypticase soy broth (TSB). Bacteria were washed and re-suspended in 10 mM Tris, pH 7.4 to obtain a dilution of 1% of bacterial suspension (1–2 × 10^9 colony forming units cfu/ml). Subsequently, 6.6 μl of bacteria were added to 15 ml of melted underlay agarose gel consisting of 0.03% (w/v) TSB, 1% (w/v) low electroendosmosis type (EEO) agarose and 0.02% (v/v) Tween 20 (Sigma) with or without 150 mM NaCl. The mixture was poured to a 144 mm sterile petri dish and left to solidify. After that, 4 mm diameter wells were punctured and 100 μM peptides were added to each well. Plates were incubated for 3 h at 37°C and then covered by adding 15 ml of over-lay gel consisting of 6% TSB and 1% Low-EEO agarose in Millipore water. After 16–24 h of incubation at 37°C, the peptides diffusion around each well formed the zone of inhibition, which corresponded to the peptide's antimicrobial activity.

IgG = test: Binding to IgG, SDS-PAGE and immunoblotting; design: species or system human
Experimental: (§1) Three μg of IgG or IgA or IgE or IgM were incubated in 20 μl of buffer (10 mM Tris, 150 mM NaCl, pH 7.4), either alone or with 0.5 μg (6 μM) of EDC34 for 1 h at 37°C. Samples were diluted in SDS buffer and analyzed under non-reducing conditions by SDS-PAGE on Criterion TGX Any kD Gel (BioRad). Alternatively, EDC34 (6 μM) was incubated either alone or in PBS containing 20% serum, citrate, lepirudin, EDTA plasma at different time points (15, 30, 60, and 120 min). Samples were analyzed under non-reducing conditions.
Six μM of EDC34 was either incubated alone or with IgGs in 10 mM Tris, 150 mM NaCl, pH 7.4 buffer, under similar concentrations for 15, 30, 60, 120 min or 24 h at 37°C. In another experiment, 6 μM of EDC34 was pre-incubated with 50 μM of TCEP (tris(2-carboxyethyl)phosphine) for 30 min at room temperature before IgG (6 μM) was added. The mixture was further incubated for 24 h at 37°C. In another experiment, 6 μM of IgG or Fab-IgG or Fc-IgG were incubated with or without 6 μM of EDC34 in 10 mM Tris, 150 mM NaCl, pH 7.4 buffer for 30 min at 37°C. Proteins and peptides were transferred to nitrocellulose membranes (Hybond-C), blocked by 5% (w/v) skimmed milk, washed and incubated with rabbit polyclonal antibodies to CAK27 or rabbit polyclonal antibodies to IgG (or 1:1,000) (Dako) or rabbit polyclonal antibodies to C1q (or 1:1,000) (Dako). […]

IgA = test: Binding to IgA, SDS-PAGE and immunoblotting; design: species or system human; settings: 0.5 μg EDC34 with 3 μg IgA, 1 h 37°C; immunoblot (Figure 1C)
Experimental: as §1

IgE = IgE (Homo sapiens, UniProt P01854); test: Binding to IgE, SDS-PAGE and immunoblotting; settings: 0.5 μg EDC34 with 3 μg IgE, 1 h 37°C; immunoblot (Figure 1C)
Experimental: as §1

IgM = test: Binding to IgM, SDS-PAGE and immunoblotting; design: species or system human; settings: 0.5 μg EDC34 with 3 μg IgM, 1 h 37°C; immunoblot (Figure 1C)
Experimental: as §1

Fc-IgG = test: Binding to Fc fragment of IgG, western blot; settings: 6 μM EDC34 with 6 μM Fc-IgG, 30 min 37°C; western blot (Figure 1E)
Experimental: (§2) Six μM of EDC34 was either incubated alone or with IgGs in 10 mM Tris, 150 mM NaCl, pH 7.4 buffer, under similar concentrations for 15, 30, 60, 120 min or 24 h at 37°C. In another experiment, 6 μM of EDC34 was pre-incubated with 50 μM of TCEP (tris(2-carboxyethyl)phosphine) for 30 min at room temperature before IgG (6 μM) was added. The mixture was further incubated for 24 h at 37°C. In another experiment, 6 μM of IgG or Fab-IgG or Fc-IgG were incubated with or without 6 μM of EDC34 in 10 mM Tris, 150 mM NaCl, pH 7.4 buffer for 30 min at 37°C. Proteins and peptides were transferred to nitrocellulose membranes (Hybond-C), blocked by 5% (w/v) skimmed milk, washed and incubated with rabbit polyclonal antibodies to CAK27 or rabbit polyclonal antibodies to IgG (or 1:1,000) (Dako) or rabbit polyclonal antibodies to C1q (or 1:1,000) (Dako). Polyclonal swine anti-rabbit immunoglobulin secondary HRP antibody (1:1,000) was used for detection and an enhanced chemiluminescent Substrate (LumiGLO) developing system (Upstate cell signaling solutions).

Fab-IgG = test: Binding to Fab fragment of IgG, western blot; settings: 6 μM EDC34 with 6 μM Fab-IgG, 30 min 37°C; western blot (Figure 1E)
Experimental: as §2

human IgG = test: Surface plasmon resonance on IgG-coated chip; type: binding; settings: SPR, IgG on CM5 chip, peptide 25–400 nM, 25°C, Hepes running buffer pH 7.5 (Figure 3E)
Experimental: IgG was immobilized (15 μg/mL) on a CM5 sensor chip via amine coupling in a 10 mM sodium acetate buffer (pH 4). A blank immobilization was performed in flow cell one. EDC34 was injected at different concentrations (25–400 nM) at a flow rate of 30 μl/min and a temperature of 25°C over the flow cells using a running buffer containing 10 mm Hepes, 150 mm NaCl, 0.005% surfactant P20, and 3.4 mM EDTA (pH 7.5). Regeneration of the sensor surface was conducted in 0.5 M sodium chloride. The analysis was performed using a Biacore X100 instrument (GE Healthcare, Uppsala, Sweden) and the data was fitted using a 1:1 binding model.

[3] = tested on: human IgG on E. coli bacteria; test: Pull down assay, IgG opsonization on the bacterial surface; design: species or system Escherichia coli
Experimental: In a total volume of 500 μl PBS buffer, 2 μM of EDC34, and 8 μM of IgG were incubated for 24 h at 37°C. Subsequently, E. coli bacteria (1–2 × 10^6 cfu/ml) were added, and then the mixture was incubated for additional 1 h. In a parallel experiment, the bacteria in the presence of absence of EDC34 were incubated for 30 min at 37°C before IgG was added for 1 h at 37°C. Samples were then centrifuged, bacterial pellets were washed twice with PBS and then re-suspended in 360 μl of 0.1 M glycine, pH 2.0 to elute the bound proteins. The pH of the eluted material was raised to 7.5 with 1 M Tris. Thereafter, 100 μl of 100% TCA were added to precipitate the eluted proteins followed by incubation for 10 min at −20° C followed by a centrifugation step for 20 min at 15,000 × g (4°C). The pellets were washed with acetone and left to air dry before they were dissolved in loading dye and analyzed under non-reducing conditions by SDS-PAGE, followed by Western blot analysis.

[4] = tested on: C1q on the surface of E. coli bacteria; test: Pull down assay, C1q recruitment to the bacterial surface; design: species or system Escherichia coli; settings: citrate plasma with 10 μM EDC34, 1 h 37°C; anti-C1q immunoblot; versus plasma alone (Figure 2B)
C1q = settings: cited from earlier work
Text: (§3) Previous studies have shown that complement activation can be amplified by targeting certain proteins such as complement factor C3 ([33]). Elvington et al. for instance described in 2012 a method showing that complement activation can be used as cancer therapy. To this end the authors employed a fusion protein of a complement receptor and an IgG Fc fragment to improve the outcome of mAb therapy in a murine metastatic cancer model ([33]). […] Moreover EDC34 is able to up re ...

C3a = settings: cited from earlier work
Text: as §3

Gram-negative bacteria = settings: cited from earlier work
Text: as §3

IgM, sequence (P01871 1-453 isoform P01871-1): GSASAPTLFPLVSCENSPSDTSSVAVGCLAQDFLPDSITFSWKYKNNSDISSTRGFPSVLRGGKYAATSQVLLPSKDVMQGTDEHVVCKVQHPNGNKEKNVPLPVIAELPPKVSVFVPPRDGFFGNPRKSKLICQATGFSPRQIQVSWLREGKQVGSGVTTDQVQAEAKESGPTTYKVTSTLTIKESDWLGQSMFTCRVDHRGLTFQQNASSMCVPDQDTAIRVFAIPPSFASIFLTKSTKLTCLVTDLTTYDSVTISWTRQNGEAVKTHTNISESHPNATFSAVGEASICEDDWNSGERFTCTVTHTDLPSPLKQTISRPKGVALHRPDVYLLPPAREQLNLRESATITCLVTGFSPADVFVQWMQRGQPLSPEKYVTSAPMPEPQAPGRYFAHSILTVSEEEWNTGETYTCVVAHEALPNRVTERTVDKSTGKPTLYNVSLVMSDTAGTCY
IgM, sequence (P01591 23-159, further chain): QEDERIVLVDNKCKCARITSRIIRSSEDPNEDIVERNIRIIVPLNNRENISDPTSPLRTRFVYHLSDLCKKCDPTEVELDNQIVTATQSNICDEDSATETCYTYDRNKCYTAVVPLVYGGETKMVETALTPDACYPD
IgE, sequence (P01854 1-428 isoform P01854-1): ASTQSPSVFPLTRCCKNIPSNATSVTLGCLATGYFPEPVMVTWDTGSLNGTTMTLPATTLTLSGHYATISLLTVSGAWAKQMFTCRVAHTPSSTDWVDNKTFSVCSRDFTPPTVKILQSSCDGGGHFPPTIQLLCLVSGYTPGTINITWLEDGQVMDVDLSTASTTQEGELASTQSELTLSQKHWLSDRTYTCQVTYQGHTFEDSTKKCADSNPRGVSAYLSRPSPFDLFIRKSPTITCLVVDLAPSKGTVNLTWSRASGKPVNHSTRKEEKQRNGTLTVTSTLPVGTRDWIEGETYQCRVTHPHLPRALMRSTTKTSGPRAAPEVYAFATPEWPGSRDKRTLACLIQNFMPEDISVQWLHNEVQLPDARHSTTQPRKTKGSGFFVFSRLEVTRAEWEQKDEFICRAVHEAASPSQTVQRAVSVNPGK

DAAQEPTGNNAET [DAA14, control peptide derived from the N-terminal region of human TFPI-2, reference compound]
antimicrobial activity in plasma, E. coli (Escherichia coli [1]; 20% human citrate plasma, 2 h 37°C (Figure 3A,B), text does not separate the two bacteria): no antimicrobial activity | antimicrobial activity in plasma, P. aeruginosa (P. aeruginosa): no antimicrobial activity

EDCKRACAKALKKKKKMPKLRFASRIRKIRKKQF [EDC34, C-terminal peptide derived from human TFPI-2]
antimicrobial activity against E. coli (Escherichia coli [1]; EDC34 6 μM, 10 mM Tris, 150 mM NaCl, pH 7.4 with 20% citrate plasma, 2 h 37°C, n = 3 (Figure 1A)): completely eradicate the bacteria | antimicrobial activity against E. coli (Escherichia coli [1]; EDC34 6 μM, buffer with 20% EDTA plasma, 2 h 37°C, n = 3 (Figure 1A)): decreased | bacterial survival rate (Escherichia coli [1]; EDC34 6 μM, buffer with 20% heparin plasma, 2 h 37°C, n = 3 (Figure 1A)): exceeding 80% | antimicrobial activity against E. coli (Escherichia coli [1]; EDC34 6 μM, buffer with 20% lepirudin plasma, 2 h 37°C, n = 3 (Figure 1A)): decreased | antimicrobial activity against E. coli (Escherichia coli [1]; EDC34 6 μM, buffer with 20% serum, 2 h 37°C, n = 3 (Figure 1A)): decreased | killing of E. coli (Escherichia coli [1]; EDC34 in PBS alone, 2 h 37°C, n = 3 (Figure 2C)): moderate killing activity | killing of E. coli (Escherichia coli [1]; EDC34 in PBS with 25% citrate plasma, 2 h 37°C, n = 3 (Figure 2C)): ~100% | antimicrobial activity (Escherichia coli [1]; EDC34 in PBS with 25% immunoglobulin-depleted citrate plasma reconstituted with IgG, 2 h 37°C, n = 3 (Figure 2C)): retained its full antimicrobial activity | bacterial survival (Escherichia coli [1]; EDC34 in PBS with 25% immunoglobulin-depleted citrate plasma, 2 h 37°C, n = 3 (Figure 2C)): Bacterial survival was increased | antimicrobial activity, zone of inhibition (Escherichia coli [2]): able impair bacterial growth | binding to IgG (IgG; 0.5 μg EDC34 with 3 μg IgG, 10 mM Tris, 150 mM NaCl, pH 7.4, 1 h 37°C, immunoblot (Figure 1C)): avidly binds | interaction with IgG over time (IgG; EDC34 and IgG 1:1 (6 μM), 37°C, after 24 h incubation (Figure 1D)): entirely absorbed | binding to IgA (IgA): avidly binds | binding to IgE (IgE): avidly binds | binding to IgM (IgM): avidly binds | binding to Fc fragment of IgG (Fc-IgG): able to bind | binding to Fab fragment of IgG (Fab-IgG): only the Fc fragment is able to bind | affinity for human IgG (human IgG): highest affinity | opsonization of immunoglobulin on the bacterial surface ([3]; EDC34 (2 μM) pre-incubated with IgG (8 μM) 24 h in PBS, then E. coli 1 h 37°C (Figure 2A)): increased opsonization | opsonization of immunoglobulin on the bacterial surface ([3]; EDC34 first preincubated with E. coli bacteria, then mixed with human IgG (Figure 2A)): less pronounced | C1q at the surface of E. coli bacteria [4]: recruitment of C1q | binding of C1q to bacterial surfaces (C1q): enhances the binding of C1q to bacterial surfaces | antimicrobial activity of C3a (C3a): able to up regulate the antimicrobial activity of C3a | eradication of Gram-negative bacteria in vivo (Gram-negative bacteria): significant capacity to eradicate
